{
  "source": "ChEMBL document CHEMBL5465560",
  "about": "“Selectivity Literature for EUbOPEN Chemogenomic Library” (2024)",
  "key": {"[1]": {"biological_target": "Calcium/calmodulin-dependent protein kinase kinase 2 (Homo sapiens) (UniProt Q96RR4)", "sequence (Q96RR4 2-588 limits assumed)": "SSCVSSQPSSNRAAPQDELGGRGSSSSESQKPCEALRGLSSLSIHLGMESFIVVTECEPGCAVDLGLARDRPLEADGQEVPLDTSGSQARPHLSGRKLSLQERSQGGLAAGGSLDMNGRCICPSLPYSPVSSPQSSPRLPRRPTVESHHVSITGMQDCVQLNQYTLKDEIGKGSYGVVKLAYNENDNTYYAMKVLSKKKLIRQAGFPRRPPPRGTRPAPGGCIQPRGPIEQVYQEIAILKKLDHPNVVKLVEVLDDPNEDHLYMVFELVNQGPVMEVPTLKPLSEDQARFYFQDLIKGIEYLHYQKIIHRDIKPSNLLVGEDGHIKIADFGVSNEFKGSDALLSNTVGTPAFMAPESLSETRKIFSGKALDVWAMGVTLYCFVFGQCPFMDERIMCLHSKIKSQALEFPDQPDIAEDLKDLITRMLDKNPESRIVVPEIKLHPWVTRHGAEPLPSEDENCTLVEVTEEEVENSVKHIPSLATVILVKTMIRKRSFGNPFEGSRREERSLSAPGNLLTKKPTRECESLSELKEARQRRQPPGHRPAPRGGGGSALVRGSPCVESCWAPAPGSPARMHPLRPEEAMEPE", "test": "Selectivity interaction (ActivX KiNativ screen (kinase selectivity in THP-1 cell lysates)) EUB0000639a CAMKK2", "type": "subcellular", "settings": "lysate, at 0.2 µM"}, "[2]": {"test": "Selectivity interaction (KinomeScan (DiscoverX)) EUB0000695a PKNB", "settings": "at 100 nM"}, "[3]": {"biological_target": "T1, Ephrin type-B receptor 2 (Homo sapiens) (UniProt P29323)", "T1 sequence (whole entry)": "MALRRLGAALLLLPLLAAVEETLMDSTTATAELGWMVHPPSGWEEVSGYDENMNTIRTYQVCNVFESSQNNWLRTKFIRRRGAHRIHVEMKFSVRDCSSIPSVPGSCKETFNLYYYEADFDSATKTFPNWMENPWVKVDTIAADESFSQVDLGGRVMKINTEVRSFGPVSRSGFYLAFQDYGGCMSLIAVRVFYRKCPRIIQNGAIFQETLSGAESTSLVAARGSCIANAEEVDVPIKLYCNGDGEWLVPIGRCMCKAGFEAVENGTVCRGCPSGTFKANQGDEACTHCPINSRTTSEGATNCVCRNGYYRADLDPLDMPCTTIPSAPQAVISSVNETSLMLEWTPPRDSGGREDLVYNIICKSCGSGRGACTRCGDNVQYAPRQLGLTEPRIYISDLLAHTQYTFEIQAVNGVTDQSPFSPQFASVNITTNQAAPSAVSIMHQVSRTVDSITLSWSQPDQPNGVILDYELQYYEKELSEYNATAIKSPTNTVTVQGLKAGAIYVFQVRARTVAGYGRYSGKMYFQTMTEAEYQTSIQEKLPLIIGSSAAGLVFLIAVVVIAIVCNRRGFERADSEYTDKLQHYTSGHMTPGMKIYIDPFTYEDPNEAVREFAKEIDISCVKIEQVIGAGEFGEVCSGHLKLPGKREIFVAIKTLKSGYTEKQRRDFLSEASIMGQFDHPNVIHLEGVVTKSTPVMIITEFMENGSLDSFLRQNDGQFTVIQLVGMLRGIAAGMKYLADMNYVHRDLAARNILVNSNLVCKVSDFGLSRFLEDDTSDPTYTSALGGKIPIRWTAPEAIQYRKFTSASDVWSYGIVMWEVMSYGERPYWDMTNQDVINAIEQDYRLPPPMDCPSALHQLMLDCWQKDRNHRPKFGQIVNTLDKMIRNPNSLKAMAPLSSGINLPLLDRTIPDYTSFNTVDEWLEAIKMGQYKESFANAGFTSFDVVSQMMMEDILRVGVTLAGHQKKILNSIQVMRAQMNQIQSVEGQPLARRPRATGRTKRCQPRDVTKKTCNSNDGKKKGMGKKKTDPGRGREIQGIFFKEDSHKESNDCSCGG", "test": "Selectivity interaction (KinomeScan (DiscoverX)) EUB0000092b EPHB2", "settings": "at 10 µM"}, "[4]": {"biological_target": "T2, Activin receptor type-1B (Homo sapiens) (UniProt P36896)", "T2 sequence (whole entry)": "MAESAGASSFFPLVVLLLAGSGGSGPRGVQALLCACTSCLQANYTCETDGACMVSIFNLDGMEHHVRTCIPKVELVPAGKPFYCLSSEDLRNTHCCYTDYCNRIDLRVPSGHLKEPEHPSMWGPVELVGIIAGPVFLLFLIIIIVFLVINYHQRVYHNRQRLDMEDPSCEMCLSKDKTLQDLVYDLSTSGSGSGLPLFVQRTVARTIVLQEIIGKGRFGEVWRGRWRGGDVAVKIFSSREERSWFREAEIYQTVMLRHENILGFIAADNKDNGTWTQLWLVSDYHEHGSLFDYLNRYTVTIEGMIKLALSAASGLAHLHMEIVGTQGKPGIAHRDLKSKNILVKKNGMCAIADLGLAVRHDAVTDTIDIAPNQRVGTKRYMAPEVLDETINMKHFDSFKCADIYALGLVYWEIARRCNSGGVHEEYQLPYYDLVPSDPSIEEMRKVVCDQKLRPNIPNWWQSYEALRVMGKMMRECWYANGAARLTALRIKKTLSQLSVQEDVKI", "test": "Selectivity interaction (KinomeScan (DiscoverX)) EUB0000618a ACVR1B", "settings": "at 10 µM"}, "[5]": {"biological_target": "T3, Cyclin-G-associated kinase (Homo sapiens) (UniProt O14976)", "T3 sequence (whole entry)": "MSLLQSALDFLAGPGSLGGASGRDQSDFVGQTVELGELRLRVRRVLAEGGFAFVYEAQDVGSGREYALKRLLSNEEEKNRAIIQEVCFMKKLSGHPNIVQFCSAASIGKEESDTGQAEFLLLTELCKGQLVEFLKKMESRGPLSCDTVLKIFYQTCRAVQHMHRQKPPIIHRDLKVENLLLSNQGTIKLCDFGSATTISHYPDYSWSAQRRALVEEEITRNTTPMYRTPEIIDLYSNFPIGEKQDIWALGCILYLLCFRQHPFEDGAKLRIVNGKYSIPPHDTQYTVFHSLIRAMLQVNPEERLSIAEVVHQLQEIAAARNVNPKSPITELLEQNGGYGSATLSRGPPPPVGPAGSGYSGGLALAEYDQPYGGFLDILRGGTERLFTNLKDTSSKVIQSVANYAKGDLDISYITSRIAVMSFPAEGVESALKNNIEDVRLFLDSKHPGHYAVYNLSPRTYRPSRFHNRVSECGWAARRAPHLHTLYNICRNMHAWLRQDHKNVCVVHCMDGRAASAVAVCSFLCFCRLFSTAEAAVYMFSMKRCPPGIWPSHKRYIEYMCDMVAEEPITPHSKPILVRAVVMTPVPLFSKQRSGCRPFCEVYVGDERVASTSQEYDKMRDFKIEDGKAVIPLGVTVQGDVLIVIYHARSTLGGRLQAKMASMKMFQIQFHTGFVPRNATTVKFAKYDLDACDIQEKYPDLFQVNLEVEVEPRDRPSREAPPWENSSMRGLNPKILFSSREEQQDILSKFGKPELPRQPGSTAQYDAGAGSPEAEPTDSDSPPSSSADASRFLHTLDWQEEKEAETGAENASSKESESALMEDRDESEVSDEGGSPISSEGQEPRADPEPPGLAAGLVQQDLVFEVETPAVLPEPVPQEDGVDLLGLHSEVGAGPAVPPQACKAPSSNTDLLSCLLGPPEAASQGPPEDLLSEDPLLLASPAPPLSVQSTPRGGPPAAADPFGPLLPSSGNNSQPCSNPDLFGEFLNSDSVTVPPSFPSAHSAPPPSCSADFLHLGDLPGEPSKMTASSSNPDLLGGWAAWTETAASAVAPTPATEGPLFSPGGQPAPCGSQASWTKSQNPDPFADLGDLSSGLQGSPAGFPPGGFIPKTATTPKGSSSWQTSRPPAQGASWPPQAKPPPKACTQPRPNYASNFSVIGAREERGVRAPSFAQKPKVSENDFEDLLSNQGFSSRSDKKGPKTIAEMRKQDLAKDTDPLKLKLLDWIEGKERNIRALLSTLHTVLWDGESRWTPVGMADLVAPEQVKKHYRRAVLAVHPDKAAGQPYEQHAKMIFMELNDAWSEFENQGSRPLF", "test": "Selectivity interaction (KinomeScan (DiscoverX)) EUB0000666a GAK", "settings": "at 10 µM"}},
  "data": [
    {"compound": "CC[C@@H]1[C@H](F)C(=O)N[C@@H]1COc1nccc2cc(C(N)=O)c(OC)cc12", "note": "[ZIMLOVISERTIB]", "values": [
      {"measurement": "% of inhibition", "setting": "[1]", "value": -5.9, "unit": "%"}
    ]},
    {"compound": "Cc1cc(F)c(C(=O)Nc2cccc(-c3nncn3C(C)C)n2)cc1-n1cnc(C2CC2)c1", "values": [
      {"measurement": "% of control", "setting": "[2]", "value": 100, "unit": "%"}
    ]},
    {"compound": "CCC(=O)N1CCN(c2ccc(-n3c(=O)ccc4cnc5ccc(-c6cnc7ccccc7c6)cc5c43)cc2C(F)(F)F)CC1", "values": [
      {"measurement": "% of control", "setting": "[3]", "value": 100, "unit": "%"}
    ]},
    {"compound": "O[C@H]1CC[C@H](Nc2ncc3nc(Nc4c(F)cc(F)cc4F)n([C@H]4CCOC4)c3n2)CC1", "values": [
      {"measurement": "% of control", "setting": "[4]", "value": 99, "unit": "%"}
    ]},
    {"compound": "O=C(NOC[C@H](O)CO)c1ccc(F)c(F)c1Nc1ccc(I)cc1F", "values": [
      {"measurement": "% of control", "setting": "[5]", "value": 71, "unit": "%"}
    ]}
  ]
}
